In patent US12628820B2, “Systems and methods for preservation of cells” (UNIVERSITY OF LOUISVILLE RESEARCH FOUNDATION, Inc., priority 2017, dated 2026):

Tests used:
RBCs [1] = test: Recovery of RBCs 24 hours after sonoporation (toxicity); assay type: cell-based, pig or human; conditions: 200 mM trehalose, microbubbles, 2.5-MHz ultrasound 70 seconds
Method: (§1) In vitro experiments have been performed to validate the methods and systems described herein. Briefly, a 0.5 mL solution containing pig or human RBCs, 200 mM trehalose, and microbubbles was placed in a conical tube and sonicated with a 2.5-MHz clinical ultrasound probe for 70 seconds (Philips 4-1 on a Verasonics Vantage 64LE ultrasound imaging system). […] Following sonication, samples were dried (FIG. 5A-B), frozen at −80° C., or freeze-dried for 1 week. Upon thawing or rehydration, the percentage of structurally intact RBCs was counted (FIG. 6A-B). Cell recovery rates of up to 85% were achieved after freezing/thawing, compared to less than 40% without sonoporation. Cell recovery rates of up to 12% were achieved after freeze-drying/rehydration, compared to 0% without sonoporation. Although the recovery is still low, this was believed to be a significant result given that not a single RBC was recovered from freeze-dried samples that had not been treated with sonoporation. […] The microfluidic sonoporation device can further improve the recovery rates by enabling consistent and precise trehalose delivery to each cell. This device is also effective in processing RBCs for long-term preservation in a frozen or freeze-dried state.

RBCs [2] = test: Recovery of RBCs following freeze-drying/rehydration; assay type: cell-based, pig or human
Method: as §1

red blood cells = test: Microscopy of dried red blood cells after rehydration; assay type: cell-based; conditions: after loading with trehalose; confocal image
Method: FIG. 5A-B includes microscopic images of dried red blood cells without trehalose (A) and after loading with trehalose (B).
as §1

RBCs [3] = test: Recovery of RBCs following freezing/thawing; assay type: cell-based, pig or human; conditions: for cell recovery rate (structurally intact RBCs) after freezing/thawing: frozen at -80° C.
Method: as §1

OC[C@H]1O[C@H](O[C@H]2O[C@H](CO)[C@@H](O)[C@H](O)[C@H]2O)[C@H](O)[C@@H](O)[C@@H]1O [trehalose]
cell recovery 24 hours after sonication (RBCs [1]): > 95% | cell recovery rate (structurally intact RBCs) after freeze-drying/rehydration (RBCs [2]; 200 mM trehalose with sonoporation, freeze-dried for 1 week): up to 12% | recovery rate after freeze-drying, improved technique (RBCs [2]; after small changes to the cell media composition and freeze-drying parameters): above 12% | recovery after freeze-drying, initial experiments (RBCs [2]; initial experiments (data not shown)): less than 8% | cell recovery rate (structurally intact RBCs) after freeze-drying/rehydration (RBCs [2]; without sonoporation, freeze-dried): 0% | shape of dried blood cells after rehydration (red blood cells): maintain shape after rehydration | cell recovery rate (structurally intact RBCs) after freezing/thawing (RBCs [3]; 200 mM trehalose with sonoporation): up to 85% | recovery rate for frozen cells (RBCs [3]; after small changes to the cell media composition, frozen cells): above 85% | cell recovery rate (structurally intact RBCs) after freezing/thawing (RBCs [3]; without sonoporation): less than 40%
